From ChEMBL document CHEMBL5214960 (J Med Chem, 2022)
Changes are numbered by the printed parent chain. Converted amounts (≈) assume the structure as drawn.

Legend:
[1] = Half life in Sprague-Dawley rat plasma at 3 mg/kg, po measured after 24 hrs by LC-MS/MS analysis; type: ADME, organism-based; settings: in vivo
[2] = biological target: Tyrosine-protein phosphatase non-receptor type 11 (Homo sapiens, UniProt Q06124); experiment: Inhibition of SHP2 (unknown origin)
[3] = AUC(0 to 8 hrs) in CD-1 mouse plasma at 10 mg/kg, po measured after 8 hrs by LC-MS/MS analysis; type: ADME, organism-based; design: dose 10 mg/kg, time 8 hrs, route po; settings: in vivo
[4] = Unbound Cmax in plasma of Sprague-Dawley rat at 30 mg/kg, po measured after 24 hrs by LC-MS/MS analysis; type: ADME, organism-based; settings: in vivo
[5] = biological target: Receptor-type tyrosine-protein phosphatase alpha (Homo sapiens, UniProt P18433); experiment: Inhibition of PTPalpha (unknown origin)
[6] = Metabolic stability in mouse hepatic microsome at 4 uM measured after 30 mins by LC-MS analysis; type: ADME; settings: liver microsomes, read-out: Stability
[7] = biological target: Receptor-type tyrosine-protein phosphatase epsilon (Homo sapiens, UniProt P23469); experiment: Inhibition of PTPepsilon (unknown origin)
[8] = biological target: RNA polymerase II subunit A C-terminal domain phosphatase SSU72 (Homo sapiens, UniProt Q9NP77); experiment: Inhibition of SSU72 (unknown origin)
[9] = Cmax in CD-1 mouse plasma at 2 mg/kg, iv measured after 8 hrs by LC-MS/MS analysis; type: ADME, organism-based; design: time 8 hrs, dose 2 mg/kg, route iv
[10] = Cmax in Sprague-Dawley rat plasma at 30 mg/kg, po measured after 24 hrs by LC-MS/MS analysis; type: ADME, organism-based; design: time 24 hrs, dose 30 mg/kg, route po; settings: in vivo
[11] = biological target: Dual specificity protein phosphatase 23 (Homo sapiens, UniProt Q9BVJ7); experiment: Inhibition of VHZ (unknown origin)
[12] = Metabolic stability in dog hepatic microsome at 4 uM measured after 30 mins by LC-MS analysis; type: ADME, Canis lupus familiaris; settings: liver microsomes, read-out: Stability
[13] = AUC(0 to 12 hrs) in Sprague-Dawley rat plasma at 30 mg/kg, po measured after 24 hrs by LC-MS/MS analysis; type: ADME, organism-based; design: time 24 hrs, dose 30 mg/kg, route po; settings: in vivo
[14] = biological target: Dual specificity protein phosphatase CDC14A (Homo sapiens, UniProt Q9UNH5); experiment: Inhibition of CDC14A (unknown origin)
[15] = Plasma protein binding in mouse assessed as unbound fraction measured after 4.5 hrs by LC-MS/MS analysis; type: ADME, cell-free
CYP3A4 = CYP3A4 (Homo sapiens, UniProt P08684); experiment: Inhibition of human hepatic CYP3A4 using midazolam as substrate measured after 3 mins by LC-MS analysis relative to control; type: ADME, tissue-based; design: concentration or dose not given beside the values; settings: human hepatic CYP3A4 (liver), probe midazolam
CYP3A4, sequence (P08684 whole entry): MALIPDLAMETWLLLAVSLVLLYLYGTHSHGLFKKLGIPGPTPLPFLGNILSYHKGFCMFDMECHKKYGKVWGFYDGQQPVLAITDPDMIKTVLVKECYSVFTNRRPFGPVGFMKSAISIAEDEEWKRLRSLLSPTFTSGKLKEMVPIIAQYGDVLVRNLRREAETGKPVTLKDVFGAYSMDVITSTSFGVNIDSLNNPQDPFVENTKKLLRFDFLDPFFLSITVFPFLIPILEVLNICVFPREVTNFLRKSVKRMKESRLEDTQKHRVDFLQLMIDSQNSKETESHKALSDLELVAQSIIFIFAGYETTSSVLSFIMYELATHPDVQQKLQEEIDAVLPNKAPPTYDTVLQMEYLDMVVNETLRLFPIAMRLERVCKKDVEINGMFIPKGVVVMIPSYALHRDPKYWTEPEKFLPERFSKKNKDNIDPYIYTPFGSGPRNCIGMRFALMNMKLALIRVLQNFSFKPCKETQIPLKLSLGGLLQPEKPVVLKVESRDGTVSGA

[16] = Unbound Cmax in plasma of CD-1 mouse at 10 mg/kg, po measured after 8 hrs by LC-MS/MS analysis; type: ADME, organism-based; settings: in vivo
[17] = biological target: Dual specificity protein phosphatase 3 (Homo sapiens, UniProt P51452); experiment: Inhibition of VHR (unknown origin)
[18] = biological target: Receptor-type tyrosine-protein phosphatase beta (Homo sapiens, UniProt P23467); experiment: Inhibition of PTPbeta (unknown origin)
[19] = biological target: T1, Low molecular weight phosphotyrosine protein phosphatase (Rattus norvegicus, UniProt P41498); experiment: Inhibition of N-terminal His-tagged full length rat LMW-PTP expressed in Escherichia coli BL21(DE3)
T1 sequence (P41498 whole entry): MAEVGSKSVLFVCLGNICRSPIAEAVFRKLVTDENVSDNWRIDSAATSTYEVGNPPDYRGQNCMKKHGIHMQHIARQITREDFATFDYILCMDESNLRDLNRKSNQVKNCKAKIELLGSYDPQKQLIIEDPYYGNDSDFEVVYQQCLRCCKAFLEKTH

[20] = biological target: Receptor-type tyrosine-protein phosphatase F (Homo sapiens, UniProt P10586); experiment: Inhibition of LAR(unknown origin)
Receptor-type tyrosine-protein phosphatase F, sequence (P10586 whole entry): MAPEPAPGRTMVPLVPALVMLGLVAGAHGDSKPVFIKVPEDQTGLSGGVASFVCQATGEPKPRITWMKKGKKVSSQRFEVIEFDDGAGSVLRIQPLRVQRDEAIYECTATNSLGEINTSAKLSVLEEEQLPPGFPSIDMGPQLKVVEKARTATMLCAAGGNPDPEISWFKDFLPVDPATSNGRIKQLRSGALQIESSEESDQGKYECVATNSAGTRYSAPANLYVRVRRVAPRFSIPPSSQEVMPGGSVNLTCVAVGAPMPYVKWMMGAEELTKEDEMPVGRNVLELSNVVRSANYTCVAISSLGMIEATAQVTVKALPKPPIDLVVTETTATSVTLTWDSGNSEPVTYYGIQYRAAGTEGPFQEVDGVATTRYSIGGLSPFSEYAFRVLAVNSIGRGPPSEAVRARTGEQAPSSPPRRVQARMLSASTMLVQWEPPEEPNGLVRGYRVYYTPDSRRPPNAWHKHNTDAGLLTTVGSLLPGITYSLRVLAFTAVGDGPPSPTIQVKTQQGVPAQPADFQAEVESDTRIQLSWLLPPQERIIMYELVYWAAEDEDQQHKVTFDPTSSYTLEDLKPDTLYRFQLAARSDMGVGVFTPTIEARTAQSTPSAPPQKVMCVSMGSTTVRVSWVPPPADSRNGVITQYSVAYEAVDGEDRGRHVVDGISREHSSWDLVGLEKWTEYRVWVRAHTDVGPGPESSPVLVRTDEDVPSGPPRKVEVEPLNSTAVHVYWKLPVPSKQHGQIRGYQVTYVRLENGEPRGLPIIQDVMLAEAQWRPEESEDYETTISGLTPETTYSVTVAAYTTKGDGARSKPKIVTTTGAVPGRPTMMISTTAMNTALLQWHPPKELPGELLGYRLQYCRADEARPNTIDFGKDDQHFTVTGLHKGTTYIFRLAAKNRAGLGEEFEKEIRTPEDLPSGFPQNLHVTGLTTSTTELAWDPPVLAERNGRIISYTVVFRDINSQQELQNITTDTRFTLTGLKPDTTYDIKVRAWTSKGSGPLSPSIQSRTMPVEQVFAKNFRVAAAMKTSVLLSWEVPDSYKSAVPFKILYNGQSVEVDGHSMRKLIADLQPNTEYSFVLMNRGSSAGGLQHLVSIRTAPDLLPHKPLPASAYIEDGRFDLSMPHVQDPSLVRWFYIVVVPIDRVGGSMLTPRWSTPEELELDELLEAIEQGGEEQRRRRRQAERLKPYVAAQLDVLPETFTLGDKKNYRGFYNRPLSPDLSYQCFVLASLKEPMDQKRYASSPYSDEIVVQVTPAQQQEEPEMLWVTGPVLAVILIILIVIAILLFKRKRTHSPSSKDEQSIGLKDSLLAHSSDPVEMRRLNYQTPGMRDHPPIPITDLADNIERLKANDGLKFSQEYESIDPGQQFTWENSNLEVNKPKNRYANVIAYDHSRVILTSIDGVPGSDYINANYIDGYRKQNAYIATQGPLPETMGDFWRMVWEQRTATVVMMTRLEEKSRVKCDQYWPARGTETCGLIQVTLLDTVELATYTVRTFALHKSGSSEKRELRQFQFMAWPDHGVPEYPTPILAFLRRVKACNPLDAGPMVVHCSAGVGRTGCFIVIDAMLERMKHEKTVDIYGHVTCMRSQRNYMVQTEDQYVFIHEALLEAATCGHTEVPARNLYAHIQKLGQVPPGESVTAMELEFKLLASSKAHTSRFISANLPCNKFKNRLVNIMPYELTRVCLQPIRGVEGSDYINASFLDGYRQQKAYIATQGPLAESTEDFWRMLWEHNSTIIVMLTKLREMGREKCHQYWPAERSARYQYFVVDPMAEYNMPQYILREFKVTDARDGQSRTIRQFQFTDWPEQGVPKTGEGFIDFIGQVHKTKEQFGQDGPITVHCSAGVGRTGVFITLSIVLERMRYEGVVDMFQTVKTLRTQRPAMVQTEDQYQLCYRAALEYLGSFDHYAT

[21] = biological target: T2, Low molecular weight phosphotyrosine protein phosphatase (Mus musculus, UniProt Q9D358); experiment: Inhibition of N-terminal His-tagged full length mouse LMW-PTP expressed in Escherichia coli BL21(DE3) by […] analysis
T2 sequence (Q9D358 whole entry): T1 sequence (P41498 whole entry) with N35K, K65R, R80K, H158Y

[22] = biological target: Tyrosine-protein phosphatase non-receptor type 2 (Homo sapiens, UniProt P17706); experiment: Inhibition of TC-PTP (unknown origin)
Tyrosine-protein phosphatase non-receptor type 2, sequence (P17706 whole entry): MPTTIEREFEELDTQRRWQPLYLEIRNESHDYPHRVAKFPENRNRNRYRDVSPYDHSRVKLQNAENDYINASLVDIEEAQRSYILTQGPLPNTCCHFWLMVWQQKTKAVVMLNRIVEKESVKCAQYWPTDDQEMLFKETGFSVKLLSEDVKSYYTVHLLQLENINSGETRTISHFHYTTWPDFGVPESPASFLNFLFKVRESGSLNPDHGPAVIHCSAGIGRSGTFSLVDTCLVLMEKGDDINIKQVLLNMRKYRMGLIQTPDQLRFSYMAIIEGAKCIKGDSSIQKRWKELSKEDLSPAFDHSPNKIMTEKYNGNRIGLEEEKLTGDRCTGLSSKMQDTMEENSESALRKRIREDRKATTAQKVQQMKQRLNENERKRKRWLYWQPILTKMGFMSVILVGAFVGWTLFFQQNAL

[23] = Cmax in Sprague-Dawley rat plasma at 3 mg/kg, po measured after 24 hrs by LC-MS/MS analysis; type: ADME, organism-based; design: time 24 hrs, dose 3 mg/kg, route po; settings: in vivo
[24] = Half life in Sprague-Dawley rat plasma at 30 mg/kg, po measured after 24 hrs by LC-MS/MS analysis; type: ADME, organism-based; settings: in vivo
[25] = biological target: T3, Low molecular weight phosphotyrosine protein phosphatase (Homo sapiens, UniProt P24666); experiment: Competitive inhibition of LMW-PTP (unknown origin) assessed as inhibition constant by Lineweaver-Burk plot analysis
T3 sequence (P24666 whole entry): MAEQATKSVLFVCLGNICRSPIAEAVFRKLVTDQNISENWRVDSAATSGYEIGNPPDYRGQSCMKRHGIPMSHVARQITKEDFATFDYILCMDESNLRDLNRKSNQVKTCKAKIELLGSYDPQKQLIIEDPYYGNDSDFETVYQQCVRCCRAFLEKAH

[26] = Metabolic stability in human hepatic microsome at 4 uM measured after 30 mins by LC-MS analysis; type: ADME; settings: liver microsomes, read-out: Stability
[27] = biological target: Tyrosine-protein phosphatase non-receptor type 12 (Homo sapiens, UniProt Q05209); experiment: Inhibition of PEST(unknown origin)
Tyrosine-protein phosphatase non-receptor type 12, sequence (Q05209 whole entry): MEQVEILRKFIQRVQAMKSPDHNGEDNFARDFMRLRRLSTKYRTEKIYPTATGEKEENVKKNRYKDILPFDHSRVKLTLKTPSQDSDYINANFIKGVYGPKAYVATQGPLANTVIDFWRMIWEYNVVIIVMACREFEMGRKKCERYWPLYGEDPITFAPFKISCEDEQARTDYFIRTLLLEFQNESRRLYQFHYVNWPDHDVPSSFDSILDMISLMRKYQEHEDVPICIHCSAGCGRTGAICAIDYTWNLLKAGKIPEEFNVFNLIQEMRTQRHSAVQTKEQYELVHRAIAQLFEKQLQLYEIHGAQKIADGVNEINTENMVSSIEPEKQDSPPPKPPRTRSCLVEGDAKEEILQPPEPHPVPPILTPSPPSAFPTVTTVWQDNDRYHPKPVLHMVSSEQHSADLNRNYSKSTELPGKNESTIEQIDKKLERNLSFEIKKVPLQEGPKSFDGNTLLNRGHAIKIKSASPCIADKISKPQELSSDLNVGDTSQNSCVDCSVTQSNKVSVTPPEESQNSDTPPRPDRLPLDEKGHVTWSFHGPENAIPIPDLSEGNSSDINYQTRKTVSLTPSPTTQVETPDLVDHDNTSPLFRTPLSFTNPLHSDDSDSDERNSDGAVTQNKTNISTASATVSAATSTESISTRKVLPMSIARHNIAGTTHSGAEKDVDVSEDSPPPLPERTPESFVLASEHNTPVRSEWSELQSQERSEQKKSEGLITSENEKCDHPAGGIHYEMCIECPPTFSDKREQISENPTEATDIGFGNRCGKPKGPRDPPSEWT

CYP2C9 = CYP2C9 (Homo sapiens, UniProt P11712); experiment: Inhibition of human hepatic CYP2C9 using diclofenac as substrate measured after 10 mins by LC-MS analysis relative to control; type: ADME, tissue-based; design: concentration or dose not given beside the values; settings: human hepatic CYP2C9 (liver), probe diclofenac
CYP2C9, sequence (P11712 whole entry): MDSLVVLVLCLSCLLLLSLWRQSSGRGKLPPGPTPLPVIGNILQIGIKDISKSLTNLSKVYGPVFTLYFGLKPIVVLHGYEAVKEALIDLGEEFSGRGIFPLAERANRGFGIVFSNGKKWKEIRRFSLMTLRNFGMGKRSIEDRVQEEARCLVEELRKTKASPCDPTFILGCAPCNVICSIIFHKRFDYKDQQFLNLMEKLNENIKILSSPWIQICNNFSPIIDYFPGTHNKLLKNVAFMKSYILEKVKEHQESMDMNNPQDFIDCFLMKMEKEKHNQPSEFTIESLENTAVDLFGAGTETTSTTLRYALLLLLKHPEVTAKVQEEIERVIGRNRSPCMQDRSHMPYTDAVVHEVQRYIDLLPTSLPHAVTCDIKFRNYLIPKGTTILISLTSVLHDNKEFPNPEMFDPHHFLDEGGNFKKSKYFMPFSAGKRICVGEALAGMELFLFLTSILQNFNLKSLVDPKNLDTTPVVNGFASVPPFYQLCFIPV

CYP2D6 = CYP2D6 (Homo sapiens, UniProt P10635); experiment: Inhibition of human hepatic CYP2D6 using bufuralol HCL as substrate measured after 3 mins by LC-MS analysis relative to control; type: ADME, tissue-based; design: concentration or dose not given beside the values; settings: human hepatic CYP2D6 (liver), probe bufuralol HCl
[28] = Aqueous solubility of compound at pH 6 by HPLC analysis; type: physicochemical; settings: buffer
[29] = Unbound Cmax in plasma of CD-1 mouse at 2 mg/kg, iv measured after 8 hrs by LC-MS/MS analysis; type: ADME, organism-based; settings: in vivo
[30] = Tmax in Sprague-Dawley rat plasma at 30 mg/kg, po measured after 24 hrs by LC-MS/MS analysis; type: ADME, organism-based; settings: in vivo
[31] = biological target: Tyrosine-protein phosphatase non-receptor type 1 (Homo sapiens, UniProt P18031); experiment: Inhibition of PTP1B (unknown origin)
[32] = Half life in CD-1 mouse plasma at 2 mg/kg, iv measured after 8 hrs by LC-MS/MS analysis; type: ADME, organism-based; settings: mouse, in vivo, iv, 2 mg/kg, 8 h
[33] = biological target: Tyrosine-protein phosphatase non-receptor type 3 (Homo sapiens, UniProt P26045); experiment: Inhibition of PTPH1 (unknown origin)
[34] = biological target: Tyrosine-protein phosphatase non-receptor type 7 (Homo sapiens, UniProt P35236); experiment: Inhibition of HePTP (unknown origin)
Tyrosine-protein phosphatase non-receptor type 7, sequence (P35236 whole entry): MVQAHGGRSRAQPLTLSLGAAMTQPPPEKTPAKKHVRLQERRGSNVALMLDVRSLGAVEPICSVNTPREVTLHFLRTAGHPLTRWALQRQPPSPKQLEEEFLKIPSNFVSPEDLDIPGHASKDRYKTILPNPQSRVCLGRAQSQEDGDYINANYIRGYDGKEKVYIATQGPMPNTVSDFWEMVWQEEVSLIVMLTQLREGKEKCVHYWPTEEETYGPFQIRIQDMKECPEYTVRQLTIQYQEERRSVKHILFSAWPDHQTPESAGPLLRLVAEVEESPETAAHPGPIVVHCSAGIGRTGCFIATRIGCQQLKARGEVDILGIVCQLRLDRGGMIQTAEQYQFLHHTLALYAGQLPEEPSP

[35] = AUC(0 to 12 hrs) in Sprague-Dawley rat plasma at 3 mg/kg, po measured after 24 hrs by LC-MS/MS analysis; type: ADME, organism-based; design: time 24 hrs, dose 3 mg/kg, route po; settings: in vivo

Tyrosine-protein phosphatase non-receptor type 11, sequence (Q06124 whole entry): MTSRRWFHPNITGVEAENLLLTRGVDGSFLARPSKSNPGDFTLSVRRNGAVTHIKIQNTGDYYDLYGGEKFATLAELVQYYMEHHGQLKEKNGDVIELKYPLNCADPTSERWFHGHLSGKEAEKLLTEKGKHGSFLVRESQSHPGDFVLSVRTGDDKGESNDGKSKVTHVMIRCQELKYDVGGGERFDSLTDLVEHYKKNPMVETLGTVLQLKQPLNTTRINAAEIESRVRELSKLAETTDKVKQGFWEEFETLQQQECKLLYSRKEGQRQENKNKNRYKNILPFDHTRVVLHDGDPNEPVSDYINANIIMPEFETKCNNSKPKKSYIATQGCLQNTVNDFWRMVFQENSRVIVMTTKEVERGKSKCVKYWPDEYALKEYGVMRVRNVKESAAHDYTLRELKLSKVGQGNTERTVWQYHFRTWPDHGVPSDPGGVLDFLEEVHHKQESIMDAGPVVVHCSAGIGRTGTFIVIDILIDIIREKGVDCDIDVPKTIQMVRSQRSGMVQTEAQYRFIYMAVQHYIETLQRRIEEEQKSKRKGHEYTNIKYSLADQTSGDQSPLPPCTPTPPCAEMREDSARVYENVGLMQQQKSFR

Cc1c(Br)cc(NC(=O)NS(=O)(=O)O)cc1Br
t1/2 [1]: 2.4 h
IC50 [2]: > 10 µM
AUC [3]: 37.3 µM·h
fCmax [4]: 158 nM
IC50 [5]: > 10 µM
remaining at 0.5 h, 4 µM [6]: 30%
IC50 [7]: > 10 µM
IC50 [8]: > 10 µM
Cmax [9]: 13.4 µM
Cmax [10]: 6.59 µM
IC50 [11]: > 10 µM
remaining at 0.5 h, 4 µM [12]: 38%
AUC [13]: 42.8 µM·h
IC50 [14]: > 10 µM
Fu [15]: 0.024
inhibition at 0.05 h (CYP3A4): 0%
fCmax [16]: 233 nM
IC50 [17]: > 10 µM
IC50 [18]: > 10 µM
IC50 [19]: 3 nM
IC50 [20]: > 10 µM
IC50 [21]: 3 nM
IC50 [22]: > 10 µM
Cmax [23]: 877 nM
t1/2 [24]: 2.8 h
Ki [25]: 1.2 nM
remaining at 0.5 h, 4 µM [26]: 21%
IC50 [27]: > 10 µM
inhibition at 10 min (CYP2C9): 0%
inhibition at 0.05 h (CYP2D6): 2%
solubility [28]: 9.5 µg/mL (≈ 24.5 µM)
fCmax [29]: 322 nM
Tmax [30]: 2.7 h
IC50 [31]: > 10 µM
t1/2 [32]: 1.41 h
IC50 [33]: > 10 µM
IC50 [34]: > 10 µM
AUC [35]: 4.66 µM·h
